Patent publication US20260226031A1, “NOVEL COMPOUNDS” (NRG THERAPEUTICS LTD., priority 2023, published 2026)

Experiments:
[1] = tested on: mPTP; assay: mPTP activity (Ca2+ retention) assay in isolated rat brain mitochondria; format: biochemical; conditions: isolated rat brain mitochondria; Fluo5N fluorescence at 10 min after Ca2+ (75 μM) bolus
How it was run: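 Mitochondria freshly isolated from brains of perfused female Sprague Dawley rats, digitonin-treated, in pH 7.4 mannitol/MOPS/KCl buffer with pyruvate, malate, ADP and oligomycin A. Incubated with compound 10 min at RT with 2 μM Fluo5N. Fluorescence then read every 3 s for 10 min.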

[2] = tested on: mPTP; assay: mPTP activity (Ca2+ retention) assay in isolated rat liver mitochondria; format: biochemical; conditions: isolated rat liver mitochondria; Fluo5N fluorescence at 10 min after CaCl2 (75 μM) bolus; DMSO 0%, 5 μM cyclosporin A 100% inhibition
How it was run: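 Freshly isolated female Sprague Dawley rat liver mitochondria with succinate, rotenone and Fluo5N were preincubated 10 min at RT with compounds (final 30 μM to 1 nM), then challenged with CaCl2. Fluorescence at 10 min gave % inhibition versus DMSO (0%) and 5 μM cyclosporin A (100%); pIC50 calculated.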

Structure (SMILES) | mPTP Rat brain pIC50 [1] | mPTP Rat liver pIC50* [2]
O=C(c1noc(=O)[nH]1)N1CC(c2ccc(F)cc2F)C2(CCC2)C1 (single isomer, unassigned) [Example 48b, 3-(8-(2,4-difluorophenyl)-6-azaspiro[3.4]octane-6-carbonyl)-1,2,4-oxadiazol-5(4H)-one] | <4.52 | <4.52
O=C(c1cncc(O)c1)N1CC(c2ccccc2)C2(CCC2)C1 (centres unmarked) [Example 1a, (5-hydroxypyridin-3-yl)(8-phenyl-6-azaspiro[3.4]octan-6-yl)methanone] | 6.73 | 5.68
O=C(c1cncc(O)n1)N1CC(c2ccccc2)C2(CCC2)C1 (centres unmarked) [Example 2, (6-hydroxypyrazin-2-yl)(8-phenyl-6-azaspiro[3.4]octan-6-yl)methanone] | 6.90 | 5.80
CC1(C)CN(C(=O)c2cncc(O)c2)CC1c1ccccc1 (centres unmarked) [Example 4, (3,3-dimethyl-4-phenylpyrrolidin-1-yl)(5-hydroxypyridin-3-yl)methanone] | 6.22 | 5.47
O=C(c1cncc(=O)[nH]1)N1CC(c2ccccc2F)C2(CCC2)C1 (centres unmarked) [Example 7, 6-(8-(2-fluorophenyl)-6-azaspiro[3.4]octane-6-carbonyl)pyrazin-2(1H)-one] | 7.11 | 5.95
CC1(C)CN(C(=O)c2cncc(=O)[nH]2)CC1c1ccccc1 (centres unmarked) [Example 8, 6-(3,3-dimethyl-4-phenylpyrrolidine-1-carbonyl)pyrazin-2(1H)-one] | 6.97 | 6.04
CC1(C)CN(C(=O)c2cncc(=O)[nH]2)CCC1c1ccccc1 (centres unmarked) [Example 9, 6-(3,3-dimethyl-4-phenylpiperidine-1-carbonyl)pyrazin-2(1H)-one] | 6.61 | 5.28
Cn1nc(C(=O)N2CC(c3ccccc3F)C3(CCC3)C2)[nH]c1=O (centres unmarked) [Example 11, 5-(8-(2-fluorophenyl)-6-azaspiro[3.4]octane-6-carbonyl)-2-methyl-2,4-dihydro-3H-1,2,4-triazol-3-one] | 6.25 | 4.75
O=C(c1cc(O)no1)N1CC(c2ccccc2)C2(CCC2)C1 (centres unmarked) [Example 22, (3-hydroxyisoxazol-5-yl)(8-phenyl-6-azaspiro[3.4]octan-6-yl)methanone] | 6.7 | 6.12
O=C(c1noc(=O)[nH]1)N1CC(c2ccccc2)C2(CCC2)C1 (centres unmarked) [Example 24, 3-[8-Phenyl-6-azaspiro[3.4]octane-6-carbonyl]-4H-1,2,4-oxadiazol-5-one] | 6.75 | 6.02
